From patent US20220401408A1, “COMPOSITIONS AND METHODS FOR RESCUING RETINAL AND CHOROIDAL STRUCTURE AND FUNCTION” (AUCKLAND UNISERVICES LIMITED, priority 2019, published 2022) come the findings set out here.

Data set [1] can be described thus: Body weight of hyperglycemic rats. Format: in vivo, SD rats (spontaneously hyperglycemic strain). The following applies: 0.28 mg/kg once daily 14 days; week 8. An excerpt:
Hyperglycemic Rat Diabetic Retinopathy Model—A spontaneously hyperglycemic strain of SD rats, which developed clinical signs of diabetic retinopathy within 4 weeks of birth were identified and isolated within the Vernon Jansen Animal Research Unit, Faculty of Medical and Health Sciences at the University of Auckland. The identification of these rats presenting with hyperglycemia and microaneurysms provided an opportunity to treat a complex, chronic disease model and assess the treatment effect based upon objective, measurable endpoints, despite lacking precise information on the etiology of the disease. Inbreeding was carried out over three generations and eyes were screened for abnormalities between 4-8 weeks of age. […]
Ten rats per group were the selected (10 normal SD and 10 hyperglycemic) grown to 5 weeks of age and assessed using OCT and ERG. […] All animals were assessed again using ERG and OCT at 8 weeks of age before euthanizing animals and removing the eyes for immunohistochemical analysis. […] In summary, normal SD and hyperglycemic rats were analyzed with OCT and ERG at 5 weeks of age; the hyperglycemic rats were then split into two groups and fed the vehicle or tonabersat for 14 days during weeks 6 and 7 of age. At week 8, animals were again assessed with ERG and OCT and tissues collected for immunohistochemical analysis. […]

For another data set, the system named is light damaged rats. Briefly: Electroretinogram (ERG) in retina light damage model of dry AMD. The data set is classed as in vivo, Sprague Dawley (SD) rats. The following applies: for mixed a-wave amplitude vs light damaged control group: 1 week post treatment. Here is the method: Retina Light Damage Model of Dry Age-Related Macular Degeneration—The intense light damage model was prepared and carried out as described in previous studies. Mat Nor N, Guo C X, Rupenthal ID, Chen Y S, Green C R, Acosta M L. Sustained Connexin43 Mimetic Peptide Release From Loaded Nanoparticles Reduces Retinal and Choroidal Photodamage. Invest Ophthalmol Vis Sci. 2018; 59:3682-93; Guo C X, Mat Nor M N, Danesh-Meyer H V, Vessey K A, Fletcher E L, O'Carroll S J, et al. Connexin43 Mimetic Peptide Improves Retinal Function and Reduces Inflammation in a Light-Damaged Albino Rat Model. Invest Ophthalmol Vis Sci. 2016; 57:3961-73; Guo C X, Tran H, Green C R, Danesh-Meyer H V, Acosta M L. Gap junction proteins in the light-damaged albino rat. Mol Vis. 2014; 20:670-82; Noell W K, Walker V S, Kang B S, Berman S. Retinal damage by light in rats. Invest Ophthalmol. 1966; 5:450-73. The light damage rat model was selected as it allows direct comparison with this and other drugs. Kim Y, Griffin J M, Nor M N M, Zhang J, Freestone P S, Danesh-Meyer H V, et al. Tonabersat Prevents Inflammatory Damage in the Central Nervous System by Blocking Connexin43 Hemichannels. Neurotherapeutics. 2017; 14:1148-65; Mat Nor N, Guo C X, Rupenthal ID, Chen Y S, Green C R, Acosta M L, supra; Guo C X, Mat Nor M N, Danesh-Meyer H V, Vessey K A, Fletcher E L, O'Carroll S J, et al., supra. […] All experimental procedures were approved by the University of Auckland Animal Ethics Committee, approval No. 001462 and comply with the Association for Research in Vision and Ophthalmology (ARVO) statement for the use of animals in eye research. Six to eight-week old albino Sprague Dawley (SD) rats (200-250 g; male or female) were used. Adult SD rats were exposed to continuous bright light for 24 hours, consistently starting at 9:00 am to minimize possible time-of-day variability. Light exposure was to two animals at a time to prevent rats from taking cover using each other as a shield. The LD protocol and intervention was repeated until the number of individuals for each dose group was obtained (n=7 per group). The light luminance was 2700 lux, generated using fluorescent lamps (Philips Master TLD 18W/965; Koninklijke Philips Electronics N.V., China) directly above the animal cages. The lamps were cool and emitted broadband light, from 380 to 760 nm wavelength, with the average intensity at the top of the cage being 120 W/m2. Animals were free to move within the cage with access to food and water ad libidum. Baseline electroretinography (ERG) readings and optical coherence tomography (OCT) images were collected prior to the light damage. After light exposure, animals were returned to normal light-dark cycle conditions (12 hours light, 174 lux and 12 hours darkness, <62 lux) for 24 hours, 1 week or 2 weeks (and for one group 3 months).
Tonabersat treatment of light damaged rats—LD rats were randomly assigned to low, middle or high dose of tonabersat (n=7 per group). The mixture of tonabersat in peanut butter was prepared fresh for each experiment. Three oral tonabersat doses were tested (n=7 per group) with follow up to 2 weeks post-injury, and the highest dose group then split with three animals taken for histological analysis, and four animals followed to 3 months post-injury. There was a ten-animal vehicle only control group. The group of rats that were kept for 3 months were maintained in separate cages for drug or vehicle-treated animals, but were kept under the same light conditions. Tonabersat was fed to animals in peanut butter at 0.26 mg/kg (on average 0.08 mg delivered, estimated circulating concentration 10 μM), 0.8 mg/kg (average of 0.24 mg delivered; 30 μM circulating) or 2.4 mg/kg (on average 0.72 mg delivered; 90 μM circulating) following consideration of previous unsuccessful human trial dosing levels. Silberstein S D. Tonabersat, a novel gap-junction modulator for the prevention of migraine. Cephalalgia. […]

[2] abbreviates: 2.4 mg/kg oral single dose, 3 months after light damage.

“Also recorded” adds a separate entry of the source.

For the compound `CC(=O)c1ccc2c(c1)[C@H](NC(=O)c1ccc(F)c(Cl)c1)[C@H](O)C(C)(C)O2` [tonabersat, N-[(3S,4S)-6-acetyl-3-hydroxy-2,2-dimethyl-3,4-dihydrochromen-4-yl]-3-chloro-4-fluorobenzamide], in data set [1], the “body weight, treated vs untreated hyperglycemic rats” value is “no difference”. Moreover, the improvement in absolute amplitude of the b-wave (on average) stood at 1000 µV with light damaged rats (0.26 mg/kg oral), 1000 µV with light damaged rats (0.8 mg/kg oral) and 1200 µV in the data set on light damaged rats (2.4 mg/kg oral). The “mixed a-wave amplitude vs light damaged control group” value in the data set on light damaged rats (0.26 mg/kg oral single dose, p<0.01) is reported as “significant improvements”; in the data set on light damaged rats (0.8 mg/kg oral single dose, p<0.01) it was “significant improvements”; in the data set with light damaged rats (2.4 mg/kg oral single dose, intensities 0.1-2.1 log cd·s/m2, p<0.001), “significant improvements”. Also, the mixed b-wave function result is listed as “significant improvement” in the data set on light damaged rats (0.26 mg/kg oral, 24 hours after treatment) and “significant improvement” in the data set with light damaged rats (0.8 mg/kg oral, 24 hours after treatment). In addition, in the data set with light damaged rats (2.4 mg/kg oral (high dose), 24 hours after treatment), the “mixed b-wave function, significant improvement” value was “not seen”. Besides, in the data set with light damaged rats (setting [2]), the “a-wave improvement in photoreceptor function compared with vehicle treated controls” value is given as “exceeding 400 V”. For the same compound, the “b-wave amplitude compared with vehicle treated controls” value in the data set on light damaged rats (setting [2]) was “exceeded 800 V”. Besides, in the data set on light damaged rats (2.4 mg/kg oral, 3 months), the “PII rod response compared to before light damage” value was “no change; also recorded: matching the controls”. The “PIII rod response compared to before light damage” value with light damaged rats (2.4 mg/kg oral, 3 months) is reported as “no change; also recorded: only slightly lower”. In the data set on light damaged rats (24 hours post-light exposure, any of three oral doses (0.26, 0.8, 2.4 mg/kg)), the “ERG, difference to vehicle control group” value is reported as “no differences”. Moreover, in the data set with light damaged rats (all three oral doses, 1 and 2 weeks post-treatment), the “inner retinal function (mixed b-wave amplitude, all stimulus intensities)” value is “overt improvement”. For the same compound, in the data set on light damaged rats (all three oral doses, 2 weeks post-treatment, highest intensity, p<0.001), the “improvement in ERG a-wave over vehicle treated light-injured group” value was roughly 500 V. For the same compound, in the data set on light damaged rats (all three oral doses, 2 weeks post-treatment, intensities 0.1-2.1 log cd·s/m2, p<0.001), the mixed a-wave amplitude result is listed as “significant recovery”. The “mixed a-wave and mixed b-wave functions” value in the data set on light damaged rats (all tonabersat-treated animals, end of 2-week recovery period) is given as “within the range of variance for normal, undamaged albino rats”.
